According to patent EP0532328A2, “Novel lignans, intermediates thereof and a process for preparing the intermediates” (TSUMURA & CO., priority 1991, dated 1993):
Like-named read-outs stand apart in the source and are kept apart here.

Assays:
[1] = solubility in a physiological salt solution; assay type: physicochemical
Method: The thus-obtained compound V is dissolved in methanol, and a) when R4 is a methoxyl group, a dilute water solution of sodium hydroxide is added to the solution to hydrolyze it, the thus-reacted solution is washed with ethyl acetate, and the water phase is concentrated, followed by acidifying with 10 % hydrochloric acid or b) when R4 is a benzyloxyl group, hydrogen gas is added to compound V in the presence of palladium on carbon, the used palladium on carbon is removed, and the methanol is distilled off, to obtain a compound represented by the constitutional formula: [drawing 11] wherein R1 and R2 are as defined above, said compound being shown as compound VI. The thus-obtained compound VI is dissolved in a solvent such as acetone, the thus-obtained solution is reacted with a dilute water solution of sodium hydroxide, the thus-reacted solution is filtered to obtain a deposit, the thus-obtained deposit is washed with said solvent, and the thus-washed deposit is dried to obtain a novel lignan compound that is one of the present inventions and that is represented by the constitutional formula: [drawing 12] wherein R1 and R2 are as defined above and R5 is a residual group of the sodium salt of an amino acid, said compound being referred to as compound VII. […]

[2] = solubility in water / purified water; assay type: physicochemical
Method: However, intravenous administrations are necessary to promptly produce drug effects in acute phase symptoms in hepatic lesion, etc., or to lower effective doses. An administration by intravenous drop infusion is not preferable as it causes patients physical and psychological pain. However, due to the low solubility in water (0.15 mg/ml of water), an aqueous injection faces a difficulty in maintaining an effective amount of the compound dissolved in an adequate amount of liquid for a one-time administration, because the amount of liquid per dose of the injection is limited to 10 to 20 ml. To make the amount of liquid adequate for the administration of an amount of the effective compound, a large amount of a solubilizing agent such as polyethylene glycol must be used. However, since this causes adverse effects, such as a hemolysis reaction, the amount used should be limited to a certain extent. Thus the development of a material having medicinal effects equivalent to said compounds and a proper solublity in water, as a substance for intravenous injection, has been sought.
The thus-obtained compound V is dissolved in methanol, and a) when R4 is a methoxyl group, a dilute water solution of sodium hydroxide is added to the solution to hydrolyze it, the thus-reacted solution is washed with ethyl acetate, and the water phase is concentrated, followed by acidifying with 10 % hydrochloric acid or b) when R4 is a benzyloxyl group, hydrogen gas is added to compound V in the presence of palladium on carbon, the used palladium on carbon is removed, and the methanol is distilled off, to obtain a compound represented by the constitutional formula: [drawing 11] wherein R1 and R2 are as defined above, said compound being shown as compound VI. The thus-obtained compound VI is dissolved in a solvent such as acetone, the thus-obtained solution is reacted with a dilute water solution of sodium hydroxide, the thus-reacted solution is filtered to obtain a deposit, the thus-obtained deposit is washed with said solvent, and the thus-washed deposit is dried to obtain a novel lignan compound that is one of the present inventions and that is represented by the constitutional formula: [drawing 12] wherein R1 and R2 are as defined above and R5 is a residual group of the sodium salt of an amino acid, said compound being referred to as compound VII. In this reaction, when instead of a dilute water solution of sodium hydroxide, a dilute water solution of another pharmaceutically acceptable metal hydroxide is used, then a compound is obtained wherein R5 is, instead of the residual group of the sodium salt of amino acid, a pharmaceutically acceptable salt other than the residual group of the sodium salt of the amino acid. Said salts are, for example, a potassium salt and a calcium salt.

[3] = in words, compared with the corresponding derivative of gomisin A

COc1cc2c(c(OC)c1OC)-c1c(cc3c(c1OC)OCO3)C[C@H](C)[C@@](C)(OC(=O)CCC(=O)NCC(=O)O)C2 [gomisin A glycinosodium succinate]
solubility in a physiological salt solution [1]: 30 mg/10 ml

COc1cc2c(c(OC)c1OC)-c1c(cc3c(c1OC)OCO3)C[C@H](C)[C@@](C)(OC(=O)CCC(=O)O)C2 [gomisin Asodium succinate, gomisin A sodium succinate]
solubility in purified water [2]: 30 mg/2 ml | solubility relative to the solubility of gomisin A ([2]; ratio to gomisin A): 100 times

COc1cc2c(c(OC)c1OC)-c1c(cc(OC)c(OC)c1OC)C[C@](C)(OC(=O)CCC(=O)O)[C@@H](C)C2 [schizandrin sodium succinate]
solubility in purified water [2, 3]: quite equivalent to the solubility of each corresponding derivative of gomisin A

COc1cc2c(c(OC)c1OC)-c1c(cc(OC)c(OC)c1OC)C[C@](C)(OC(=O)CCC(=O)NCC(=O)O)[C@@H](C)C2 [schizandrin glycinosodium succinate]
solubility in a physiological salt solution [1, 3]: quite equivalent to the solubility of each corresponding derivative of gomisin A | solubility in purified water [2, 3]: quite equivalent to the solubility of each corresponding derivative of gomisin A
